{"source": "patent US20240425514A1", "about": "“ALSTONINE DERIVATIVES AND SALTS THEREOF” (priority 2021, published 2024)", "key": {"[1]": {"system": "zebrafish", "assay": "Social preference test in zebrafish, MK-801 model", "assay_type": "in vivo, Danio rerio", "conditions": "for overall effect on all parameters of the social preference test: drug pretreatment, then water or MK-801 5 μM", "procedure": "(§1) Here, the ability of alstonine salts to reverse schizophrenia-like symptoms produced by MK-801 in zebrafish was evaluated. The atypical antipsychotic olanzapine was used as a comparison.\n(§2) Experiments were performed using male and female (50:50 ratio) short-fin wild-type zebrafish (4-month-old, 300-500 mg). Adult animals were obtained from a local commercial supplier (Delphis, R S, Brazil). The animals were maintained at Instituto de Ciências Básicas da Saúde in a light/dark cycle of 14/10 h with lights on at 7:00 a.m for at least two weeks before tests. Fish were kept in 40-L (30×46×33 cm) unenriched glass tanks with non-chlorinated water at a maximum density of five animals per liter. Tank water satisfied the controlled conditions required for zebrafish (26±2° C.; pH 7.0±0.3; dissolved oxygen at 7.0±0.4 mg/L; total ammonia at <0.01 mg/L; total hardness at 5.8 mg/L; alkalinity at 22 mg/L CaCO3; conductivity of 1,500-1,600 μS/cm) and was constantly filtered by mechanical, biological, and chemical filtration systems. Food was provided twice a day as commercial flake food (Poytara®, SP, Brazil) plus brine shrimp (Artemia salina). The sex of the animals was confirmed after euthanasia by dissecting and analyzing the gonads. For all experiments, no sex effects were observed, so data were pooled together. Animals were euthanized by hypothermic shock according to the AVMA Guidelines for the Euthanasia of Animals (Leary and Johnson, 2020).\n(§3) MK-801 (dizocilpine) and sulpiride were purchased from Sigma-Aldrich (St. Louis, MO, USA); olanzapine was purchased from Selleck Chemicals. Alstonine hydrochloride, alstonine benzoate, and alstonine benzensulfonate were prepared as described herein. MK-801, olanzapine, and alstonine hydrochloride were dissolved in distilled water, with sonication in an ultrasonic bath for the latter. Sulpiride, alstonine benzoate, and alstonine benzensulfonate were dissolved in 100% DMSO; stock solutions were diluted to achieve a final DMSO concentration of 1% for the highest concentration. MK-801 solutions were freshly prepared, while alstonine stock solutions were kept refrigerated for up to five days. Exposure solutions were renovated halfway through the experiment, with a maximum of four fish exposed to the same solution.\n(§4) Different sets of animals were used for each experiment, totaling 600 zebrafish in the study (plus 200 zebrafish serving as stimulus animals). Animals were individually exposed to water or alstonine solutions at 2.5, 5 or 10 mg/L in 500-mL beakers containing 200-mL solution for 20 min (n=15). These concentrations were extrapolated from mice studies. Fish were then transferred to another beaker containing either water or MK-801 at 5 μM and remained there for another 20 minutes.\n(§5) The animals were allocated to the experimental groups following block randomization procedures to counterbalance for home tank, sex, and day of testing. The order for outcome assessment was also randomized and care was taken to counterbalance the test apparatuses across the experimental groups. Outcome assessors were blind to the experimental groups, as well as the experimenters responsible for taking the animal and placing it in the test apparatus.\nThe protocol for the social preference test in zebrafish followed the method described by Benvenutti et al. (2021). After exposure, animals were placed for 7 min in a tank (30×10×15 cm) flanked by two identical tanks (15×10×13 cm) either empty (neutral stimulus) or containing 10 unknown zebrafish (social stimulus). All three tanks were filled with water in standard conditions at a level of 10 cm. The position of the social stimulus (right or left) was counterbalanced throughout the tests. The water in the test tanks was changed between every animal. To assess social behavior, the test apparatus was virtually divided into three vertical zones (interaction, middle, and neutral). Animals were habituated to the apparatus for 2 min and then analyzed for the last 5 min. […]"}, "[2]": {"system": "zebrafish", "assay": "Open tank test in zebrafish, MK-801 model", "assay_type": "in vivo, Danio rerio", "conditions": "for overall effect on the analyzed parameters of the open tank test: drug pretreatment", "procedure": "as §1, §2, §3, §4, §5\nThe protocol for the open tank test followed the method described by Benvenutti et al. (2021). Immediately after the social preference test, animals were placed in the center of the open tank arena and recorded for 10 min. The apparatus consisted of a white circular arena (24 cm in diameter and 8 cm in height, 2 cm water level). The apparatus format and the acquisition of videos from the top view allows the evaluation of locomotor parameters related to stereotypic behavior (circular movements and absolute turn angle). The water was changed between every animal. The following outcomes were automatically scored using ANY-Maze software (Stoelting Co., Wood Dale, IL, USA): total distance traveled, absolute turn angle, number of clockwise rotations, and immobility time. […]"}, "[3]": {"system": "D2, and 5-HT2A receptors", "conditions": "cortex membranes; preliminary binding studies; cited from earlier work"}, "[4]": {"system": "mice", "conditions": "0.5-1.0 mg/kg ip; cited from earlier work"}, "[5]": {"system": "dopamine (DA) uptake", "conditions": "mouse striatal synaptosomes; cited from earlier work"}, "[6]": {"target": "T1, D1 (Homo sapiens, UniProt P21728)", "T1 construct": "host or cells: cortex membranes (tissue)", "T1 sequence (P21728 whole entry)": "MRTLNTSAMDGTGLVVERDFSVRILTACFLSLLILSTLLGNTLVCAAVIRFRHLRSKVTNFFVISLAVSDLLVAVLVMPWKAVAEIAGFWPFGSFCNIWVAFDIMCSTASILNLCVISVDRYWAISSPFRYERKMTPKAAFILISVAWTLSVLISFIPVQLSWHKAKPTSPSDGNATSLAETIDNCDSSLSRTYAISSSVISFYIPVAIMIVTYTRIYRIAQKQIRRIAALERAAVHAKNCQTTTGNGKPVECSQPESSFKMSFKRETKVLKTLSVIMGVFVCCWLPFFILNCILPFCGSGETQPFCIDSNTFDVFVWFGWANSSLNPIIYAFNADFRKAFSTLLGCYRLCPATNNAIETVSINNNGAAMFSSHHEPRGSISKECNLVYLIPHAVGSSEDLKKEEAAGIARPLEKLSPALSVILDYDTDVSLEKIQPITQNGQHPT", "conditions": "cortex membranes; preliminary binding studies; cited from earlier work"}, "[7]": {"conditions": "MK-801 5 μM vs control, experiment with olanzapine"}, "[8]": {"conditions": "MK-801 5 μM vs controls, experiment with sulpiride"}}, "note": "“Also recorded” adds a separate entry of the source. Counter-ions that a name gives are not always drawn.", "data": [{"smiles": "COC(=O)C1=CO[C@@H](C)[C@@H]2Cn3ccc4c5ccccc5nc-4c3C[C@H]12", "note": "[Alstonine hydrochloride]", "values": [{"measurement": "overall effect on all parameters of the social preference test", "setting": "[1]", "result": "potentiated the effects of MK-801 in the social preference test"}, {"measurement": "time in the zone of interaction", "setting": "[1]; fish exposed 20 min to drug, then 20 min to water or MK-801 5 μM, main effect of drug pretreatment, two-way ANOVA", "result": "nonspecifically reduced the time in the zone of interaction at the intermediate and highest concentrations"}, {"measurement": "number of crossings", "setting": "[1]; interaction between drug pretreatment and MK-801 5 μM, Bonferroni post hoc", "result": "potentiated the effect of MK-801 at the intermediate concentration"}]}, {"smiles": "CCN1CCCC1CNC(=O)c1cc(S(N)(=O)=O)ccc1OC", "note": "(stereo not shown) [Sulpiride, sulpiride]", "values": [{"measurement": "overall effect on the analyzed parameters of the open tank test", "setting": "[2]; then water or MK-801 5 μM", "result": "no significant effects on any of the analyzed parameters"}, {"measurement": "overall effect on all parameters of the social preference test", "setting": "[1]", "result": "devoid of effects on all parameters"}]}, {"smiles": "COC(=O)C1=COC(C)C2C[n+]3ccc4c([nH]c5ccccc54)c3CC12.O=S(=O)([O-])c1ccccc1", "note": "(stereo not shown) [alstonine benzensulfonate, Alstonine benzenesulfonate]", "values": [{"measurement": "immobility time", "setting": "[2]; drug pretreatment 20 min, then water or MK-801 5 μM, interaction with MK-801, post hoc", "result": "the intermediate and highest concentrations prevented the increase in immobility time induced by MK-801; also recorded: subgroup of animals that respond to alstonine benzensulfonate regarding immobility time to the level of controls"}, {"measurement": "distance traveled", "setting": "[2]; drug pretreatment 20 min, then water or MK-801 5 μM, main effect of drug", "result": "trend for a main effect on total distance"}, {"measurement": "clockwise rotations", "setting": "[2]; drug pretreatment 20 min, then water or MK-801 5 μM, main effect or interaction with MK-801", "result": "significant interaction; also recorded: preventing (at the highest concentrations) the effects of MK-801 on clockwise rotations"}, {"measurement": "overall effect on the analyzed parameters of the open tank test", "setting": "[2]; then water or MK-801 5 μM", "result": "possess antipsychotic-like properties similar to olanzapine"}, {"measurement": "overall effect on all parameters of the social preference test", "setting": "[1]", "result": "devoid of statistically significant effects"}]}, {"smiles": "C[C@]12N[C@H](Cc3ccccc31)c1ccccc12", "note": "[MK-801, dizocilpine]", "values": [{"measurement": "absolute turn angle", "setting": "[2]; main effect of MK-801 5 μM", "result": "decreased"}, {"measurement": "clockwise rotations", "setting": "[2]; main effect of MK-801 5 μM", "result": "decreased"}, {"measurement": "distance traveled", "setting": "[2]; main effect of MK-801 5 μM", "result": "decreased the distance traveled"}, {"measurement": "immobility time", "setting": "[2]; main effect of MK-801 5 μM", "result": "increased the immobility time"}, {"measurement": "number of crossings", "setting": "[1]; [7]", "result": "increased"}, {"measurement": "time in the social interaction zone", "setting": "[1]; [7]", "result": "spent less time in the social interaction zone"}, {"measurement": "total distance traveled", "setting": "[1]; [7]", "result": "increased the total distance traveled"}, {"measurement": "immobility time", "setting": "[1]; [8]", "result": "increased"}, {"measurement": "number of crossings", "setting": "[1]; [8]", "result": "increased the number of crossings"}]}, {"smiles": "COC(=O)C1=COC(C)C2C[n+]3ccc4c([nH]c5ccccc54)c3CC12.O=C([O-])c1ccccc1", "note": "(stereo not shown) [alstonine benzoate, Alstonine benzoate]", "values": [{"measurement": "overall effect on all parameters of the social preference test", "setting": "[1]", "result": "devoid of statistically significant effects"}, {"measurement": "immobility time", "setting": "[1]; interaction between drug pretreatment and MK-801 5 μM", "result": "trend for alstonine benzoate to prevent the effects of MK-801 on immobility time in the highest concentration tested"}]}, {"smiles": "COC(=O)C1=CO[C@@H](C)[C@@H]2Cn3ccc4c5ccccc5nc-4c3C[C@H]12", "note": "[alstonine]", "values": [{"measurement": "effect on [3H]Spiperone binding", "setting": "[3]", "result": "does not affect"}, {"measurement": "antipsychotic properties in mice models", "setting": "[4]", "result": "shows antipsychotic properties"}, {"measurement": "DA uptake", "setting": "[5]", "result": "increasing DA uptake"}, {"measurement": "effect on [3H]SCH23390 binding", "setting": "[6]", "result": "does not affect"}]}]}
